According to patent US20190309017A1, “GLUTAMINASE INHIBITORS” (Glutaminax, LLC, priority 2018, published 2019):
Several values for one entry are separate records, joined by “and”; a condition that tells them apart may be missing. Identical values can stand only once. Residues, ends and D or L forms follow the SMILES beside them. *: point of attachment. NHOH = ON*

Tests used:
[1] = test system: Panc1 cells (Pancreatic cancer); assay: Cell kill of Panc1 cells, CyQuant NF assay (DNA content); format: cell-based
Method: Compounds 6 and 9 were tested with Panc1 cells (Pancreatic cancer) plated in DMEM medium (2 mM glutamine). Approximately 30,000 live cells were plated. Compounds were dissolved in PBS and pH adjusted to neutrality (200 mM stock). Compound 9 was added at 1 mM, 2 mM and 4 mM concentrations into separate wells. Compound 6 was added at 0.25 mM and 1 mM concentrations into separate wells. The cells were incubated for 48 and 96 hours in the presence of compound 9, and 48 and 72 hours in the presence of compound 6. Cell number was determined with the CyQuant NF assay (measures DNA content) according to manufacturer's instruction (Invitrogen).

[2] = test system: IM-9 cells (Multiple Myeloma); assay: Cell kill of IM-9 cells, CyQuant NF assay (DNA content); format: cell-based
Method: Compounds 6 and 9 were tested for their ability to kill IM-9 cells (Multiple Myeloma). Approximately 25,000 cells were plated in RPMI medium (4 mM glutamine). Compounds 6 and 9 were dissolved in PBS and pH adjusted to neutrality (200 mM stock). Compound 9 was added at 1 mM, 2 mM and 4 mM concentrations into separate wells. Compound 6 was added at 0.25 mM and 1 mM concentrations into separate wells. The cells were incubated for 48 and 96 hours in the presence of […], and 48 and 72 hours in the presence of compound 6. Cell number was determined with the CyQuant NF assay (measures DNA content) according to manufacturer's instruction (Invitrogen). For the sake of clarity, compounds 6 and 9 are reproduced below: […]

[3] = 1 mM compound, Day 2, DMEM medium (2 mM glutamine)

Compound	Cells killed v. control [1, 3] [%]	Cells killed v. control ([1]; 2 mM compound, Day 2, DMEM medium (2 mM glutamine)) [%]	Cells killed v. control ([1]; 2 mM compound, Day 4, DMEM medium (2 mM glutamine)) [%]	Cells killed v. control ([1]; 4 mM compound, Day 2, DMEM medium (2 mM glutamine)) [%]	Cells killed v. control ([1]; 4 mM compound, Day 4, DMEM medium (2 mM glutamine)) [%]	Cells killed v. control ([2]; 1 mM compound, Day 4, RPMI medium (4 mM glutamine))	Cells killed v. control ([2]; 2 mM compound, Day 2, RPMI medium (4 mM glutamine)) [%]	Cells killed v. control ([2]; 2 mM compound, Day 4, RPMI medium (4 mM glutamine)) [%]	Cells killed v. control ([2]; 4 mM compound, Day 2, RPMI medium (4 mM glutamine)) [%]	Cells killed v. control ([2]; 4 mM compound, Day 4, RPMI medium (4 mM glutamine)) [%]	Cells killed v. control ([1]; 0.25 mM compound, Day 2, DMEM medium (2 mM glutamine)) [%]	Cells killed v. control ([1]; 0.25 mM compound, Day 3, DMEM medium (2 mM glutamine)) [%]	Cells killed v. control ([1]; 1 mM compound, Day 3, DMEM medium (2 mM glutamine)) [%]	Cells killed v. control ([2]; 0.25 mM compound, Day 3, RPMI medium (4 mM glutamine)) [%]	Cells killed v. control ([2]; 1 mM compound, Day 2, RPMI medium (4 mM glutamine)) [%]	Cells killed v. control ([2]; 1 mM compound, Day 3, RPMI medium (4 mM glutamine)) [%]
NC(=O)CCC(NC(=O)C(N)CCC(=O)O)C(=O)NO (stereo not drawn) [Compound 9, α-Glu-Gln (NHOH mimetic)] (H-Glu-Gln-{NHOH}; configuration not given here)	~0	~7	~9	~11	~55	~58% and 58%	~29	~66	~61	~96						
NC(=O)CC[C@H](NC(=O)CC[C@H](N)C(=O)O)C(=O)NO [Compound 6, β-Glu-Gln (NHOH mimetic)]	~66										~32	~50	~75	~87	~83	~91
